Values of other authors in patent US20080125428A1, “Cancer Treatment Method” (priority 2004, published 2008).

Tested on: tumor cells overexpressing EGFR or erbB2
Settings: Rusnak et al., 2001b, Xia et al., 2002

SMILES: CS(=O)(=O)CCNCc1ccc(-c2ccc3ncnc(Nc4ccc(OCc5cccc(F)c5)c(Cl)c4)c3c2)o1 [GW572016, N-{3-chloro-4-[(3-fluorobenzyl)oxy]phenyl}-6-[5-({[2-(methanesulphonyl)ethyl]amino}methyl)-2-furyl]-4-quinazolinamine]
- kinase inhibition in human xenograft studies: dose-dependent kinase inhibition
- selectivity for tumor cells overexpressing EGFR or erbB2 (human xenograft studies): selectively inhibits tumor cells overexpressing EGFR or erbB2
